System: CD8+ T cells
Assay: In vitro immunogenicity: T-cell priming with aAPCs loaded with peptide/MHC complexes and anti-CD28 antibody, pMHC multimer readout
Type: cell-based, human
Details: CD8+ T cells of healthy donors, three stimulation cycles, multimer staining; Table 19A
Protocol: In an aspect, the peptides are pre-screened for immunogenicity before being included in the warehouse. By way of example, and not limitation, the immunogenicity of the peptides included in the warehouse is determined by a method comprising in vitro T-cell priming through repeated stimulations of CD8+ T cells from healthy donors with artificial antigen presenting cells loaded with peptide/MHC complexes and anti-CD28 antibody.
In order to obtain information regarding the immunogenicity of the TUMAPs of the present invention, the inventors performed investigations using an in vitro T-cell priming assay based on repeated stimulations of CD8+ T cells with artificial antigen presenting cells (aAPCs) loaded with peptide/MHC complexes and anti-CD28 antibody.
In order to perform in vitro stimulations by artificial antigen presenting cells loaded with peptide-MHC complex (pMHC) and anti-CD28 antibody, the inventors first isolated CD8+ T cells from fresh HLA-A*02 leukapheresis products via positive selection using CD8 microbeads (Miltenyi Biotec, Bergisch-Gladbach, Germany) of healthy donors obtained from the University clinics Mannheim, Germany, after informed consent.
PBMCs and isolated CD8+ lymphocytes were incubated in T-cell medium (TCM) until use consisting of RPMI-Glutamax (Invitrogen, Karlsruhe, Germany) supplemented with 10% heat inactivated human AB serum (PAN-Biotech, Aidenbach, Germany), 100 U/ml Penicillin/100 μg/ml Streptomycin (Cambrex, Cologne, Germany), 1 mM sodium pyruvate (CC Pro, Oberdorla, Germany), 20 μg/ml Gentamycin (Cambrex). 2.5 ng/ml IL7 (PromoCell, Heidelberg, Germany) and 10 U/ml IL-2 (Novartis Pharma, Nurnberg, Germany) were also added to the TCM at this step.
Generation of pMHC/anti-CD28 coated beads, T-cell stimulations and readout was performed in a highly defined in vitro system using four different pMHC molecules per stimulation condition and 8 different pMHC molecules per readout condition.
The purified co-stimulatory mouse IgG2a anti human CD28 Ab 9.3 (Jung et al., 1987) was chemically biotinylated using Sulfo-N-hydroxysuccinimidobiotin as recommended by the manufacturer (Perbio, Bonn, Germany). Beads used were 5.6 μm diameter streptavidin coated polystyrene particles (Bangs Laboratories, Illinois, USA).
pMHC used for positive and negative control stimulations were A*0201/MLA-001 (peptide […] (SEQ ID NO. 303) from modified Melan-A/MART-1) and A*0201/DDX5-001 ([…] from DDX5, SEQ ID NO. 304), respectively.
800.000 beads/200 μl were coated in 96-well plates in the presence of 4×12.5 ng different biotin-pMHC, washed and 600 ng biotin anti-CD28 were added subsequently in a volume of 200 μl. Stimulations were initiated in 96-well plates by co-incubating […] CD8+ T cells with 2×10^5 washed coated beads in 200 μl TCM supplemented with 5 ng/ml IL-12 (PromoCell) for 3 days at 37° C. Half of the medium was then exchanged by fresh TCM supplemented with 80 U/ml IL-2 and incubating was continued for 4 days at 37° C. This stimulation cycle was performed for a total of three times. For the pMHC multimer readout using 8 different pMHC molecules per condition, a twodimensional combinatorial coding approach was used as previously described (Andersen et al., 2012) with minor modifications encompassing coupling to 5 different fluorochromes. Finally, multimeric analyses were performed by staining the cells with Live/dead near IR dye (Invitrogen, Karlsruhe, Germany), CD8-FITC antibody clone SK1 (BD, Heidelberg, Germany) and fluorescent pMHC multimers. For analysis, a BD LSRII SORP cytometer equipped with appropriate lasers and filters was used. Peptide specific cells were calculated as percentage of total CD8+ cells. Evaluation of multimeric analysis was done using the FlowJo software (Tree Star, Oregon, USA). In vitro priming of specific multimer+ CD8+ lymphocytes was detected by comparing to negative control stimulations.

| Substance | Wells (in vitro immunogenicity of HLA class I peptides) |
| --- | --- |
| 290 (KIVDFSYSV; listed as Homo sapiens) [compound 290] | ++ (20%-49% = ++) |
| 291 (KLDETGNSL; listed as Homo sapiens) [compound 291] | + (<20% = +) |
| 292 (GMMTAILGV; listed as Homo sapiens) [compound 292] | + (<20% = +) |
| 293 (FLVDGSWSI; listed as Homo sapiens) [compound 293] | + (<20% = +) |
| 295 (YYPGVILGF; listed as Homo sapiens) [compound 295] | ++ (20%-49% = ++) |
| 296 (TYVDSSHTI; listed as Homo sapiens) [compound 296] | + (<20% = +) |
| 297 (PFLQASPHF; listed as Homo sapiens) [compound 297] | ++ (20%-49% = ++) |
| 298 (RYLEGTSCI; listed as Homo sapiens) [compound 298] | + (<20% = +) |
| 300 (AYVLRLETL; listed as Homo sapiens) [compound 300] | + (<20% = +) |
| 301 (AYKPGALTF; listed as Homo sapiens) [compound 301] | + (<20% = +) |

Same assay, conditions: in vitro immunogenicity of HLA class I peptides; peptide-specific multimer+ wells after aAPC priming of CD8+ T cells

| Substance | Wells positive [%] |
| --- | --- |
| 5 (GIVAHIQEV; listed as Homo sapiens) [compound 5] | + (<20% = +) |
| 18 (ILLDLTDNRL; listed as Homo sapiens) [compound 18] | + (<20% = +) |
| 23 (SLFSDEFKV; listed as Homo sapiens) [compound 23] | ++++ (>=70% = ++++) |
| 26 (ALQEELTEL; listed as Homo sapiens) [compound 26] | + (<20% = +) |
| 29 (YLLDPSITL; listed as Homo sapiens) [compound 29] | + (<20% = +) |
| 31 (TITETTVEV; listed as Homo sapiens) [compound 31] | + (<20% = +) |
| 35 (FLLPFSTVYL; listed as Homo sapiens) [compound 35] | + (<20% = +) |
| 90 (FLQDLEQRL; listed as Homo sapiens) [compound 90] | + (<20% = +) |
| 141 (FLDKVLVAA; listed as Homo sapiens) [compound 141] | + (<20% = +) |
| 149 (ILNTHITEL; listed as Homo sapiens) [compound 149] | + (<20% = +) |
| 158 (HYSQELSLLYL; listed as Homo sapiens) [compound 158] | + (<20% = +) |
| 159 (LYNKGFIYL; listed as Homo sapiens) [compound 159] | ++++ (>=70% = ++++) |
| 163 (DYLKGLASF; listed as Homo sapiens) [compound 163] | + (<20% = +) |
| 165 (DYTTWTALL; listed as Homo sapiens) [compound 165] | + (<20% = +) |
| 167 (NYINRILKL; listed as Homo sapiens) [compound 167] | + (<20% = +) |
| 196 (LYIDRPLPYL; listed as Homo sapiens) [compound 196] | ++++ (>=70% = ++++) |
| 197 (EYSLFPGQVVI; listed as Homo sapiens) [compound 197] | + (<20% = +) |
| 204 (TYELRYFQI; listed as Homo sapiens) [compound 204] | + (<20% = +) |
| 207 (AYVVFVSTL; listed as Homo sapiens) [compound 207] | + (<20% = +) |
| 218 (YYKSTSSAF; listed as Homo sapiens) [compound 218] | + (<20% = +) |
| 230 (KLQNIMMLL; listed as Homo sapiens) [compound 230] | ++++ (>=70% = ++++) |
| 268 (QYLGQIQHI; listed as Homo sapiens) [compound 268] | + (<20% = +) |
| 269 (YFIDSTNLKTHF; listed as Homo sapiens) [compound 269] | + (<20% = +) |
| 285 (HYPPVQVLF; listed as Homo sapiens) [compound 285] | + (<20% = +) |

Target: HLA-A*02 (Homo sapiens, UniProt P04439, D140Y/D185E/D98H/E176V/E277Q/G131W/G231S/I119V/I121R/I166T/I218V/N151K/N90K/P208A/P217A/Q86G/Q94H/R138H/R169H)
Assay: MHC binding assay (UV-ligand exchange, beta2m ELISA), HLA-A*02
Details: MHC class I binding score, peptide exchange yield
Excerpt: (§1) Candidate peptides for T cell based therapies according to the present invention were further tested for their MHC binding capacity (affinity). The individual peptide-MHC complexes were produced by UV-ligand exchange, where a UV-sensitive peptide is cleaved upon UV-irradiation, and exchanged with the peptide of interest as analyzed. Only peptide candidates that can effectively bind and stabilize the peptide-receptive MHC molecules prevent dissociation of the MHC complexes. To determine the yield of the exchange reaction, an ELISA was performed based on the detection of the light chain ([…] of stabilized MHC complexes. The assay was performed as generally described in Rodenko et al. (Rodenko et al., 2006).
(§2) 96 well MAXISorp plates (NUNC) were coated over night with 2 ug/ml streptavidin in PBS at room temperature, washed 4× and blocked for 1 h at 37° C. in 2% BSA containing blocking buffer. Refolded HLA-A*02:01/MLA-001 monomers served as standards, covering the range of 15-500 ng/ml. Peptide-MHC monomers of the UV-exchange reaction were diluted 100 fold in blocking buffer. Samples were incubated for 1 h at 37° C., washed four times, incubated with 2 ug/ml HRP conjugated anti-β2m for 1 h at 37° C., washed again and detected with TMB solution that is stopped with […]. Absorption was measured at 450 nm. Candidate peptides that show a high exchange yield (preferably higher than 50%, most preferred higher than 75%) are generally preferred for a generation and production of antibodies or fragments thereof, and/or T cell receptors or fragments thereof, as they show sufficient avidity to the MHC molecules and prevent dissociation of the MHC complexes.

| Substance | Peptide exchange |
| --- | --- |
| 1 (LLYPEPWSV; listed as Homo sapiens) [compound 1] | ++++ (>=75% = ++++) |
| 3 (KLEENGDLYL; listed as Homo sapiens) [compound 3] | ++++ (>=75% = ++++) |
| 14 (ILAKDLFEI; listed as Homo sapiens) [compound 14] | ++++ (>=75% = ++++) |
| 16 (YTLDIPVLFGV; listed as Homo sapiens) [compound 16] | ++++ (>=75% = ++++) |
| 34 (FLLATEVVTV; listed as Homo sapiens) [compound 34] | ++++ (>=75% = ++++) |
| 42 (LLDSVSRL; listed as Homo sapiens) [compound 42] | + (<20% = +) |
| 51 (LLFSRLCGA; listed as Homo sapiens) [compound 51] | ++++ (>=75% = ++++) |
| 82 (FIFDEAEKL; listed as Homo sapiens) [compound 82] | + (<20% = +) |
| 84 (ALCPRIHEV; listed as Homo sapiens) [compound 84] | ++++ (>=75% = ++++) |
| 92 (GLLFSLRSV; listed as Homo sapiens) [compound 92] | ++++ (>=75% = ++++) |
| 95 (GLLGSLFFL; listed as Homo sapiens) [compound 95] | ++++ (>=75% = ++++) |

System: HLA-A*24
Assay: MHC binding assay (UV-ligand exchange, beta2m ELISA), HLA-A*24
Set-up: species or system human
Details: MHC class I binding score, peptide exchange yield
Excerpt: as §1, §2

| Substance | Peptide exchange |
| --- | --- |
| 158 (HYSQELSLLYL; listed as Homo sapiens) [compound 158] | ++++ (>=75% = ++++) |
| 159 (LYNKGFIYL; listed as Homo sapiens) [compound 159] | ++++ (>=75% = ++++) |
| 163 (DYLKGLASF; listed as Homo sapiens) [compound 163] | ++++ (>=75% = ++++) |
| 165 (DYTTWTALL; listed as Homo sapiens) [compound 165] | ++++ (>=75% = ++++) |
| 167 (NYINRILKL; listed as Homo sapiens) [compound 167] | ++++ (>=75% = ++++) |
| 204 (TYELRYFQI; listed as Homo sapiens) [compound 204] | ++++ (>=75% = ++++) |
| 282 (KFVDSTFYL; listed as Homo sapiens) [compound 282] | ++++ (>=75% = ++++) |
| 289 (KYPVEWAKF; listed as Homo sapiens) [compound 289] | ++++ (>=75% = ++++) |
